Where “and” joins values, the source holds several entries; their conditions need not be identical. Identical values can stand only once.
Test: xn = mol fraction of the nth substance listed
Details: 100 kPa

CN1CCCN(C)C1=O + O
viscosity
Details	303.15 K	308.15 K	313.15 K	318.15 K	323.15 K
x1 = 0.007139	0.942 mPa·s	0.848 mPa·s	0.769 mPa·s	0.699 mPa·s	–
x1 = 0.01508	1.127 mPa·s	1.012 mPa·s	0.919 mPa·s	0.843 mPa·s	–
x1 = 0.0297	1.386 mPa·s	1.236 mPa·s	1.112 mPa·s	1.002 mPa·s	–
x1 = 0.0568	1.979 mPa·s	1.733 mPa·s	1.538 mPa·s	1.379 mPa·s	–
x1 = 0.08573	2.774 mPa·s	2.371 mPa·s	2.05 mPa·s	1.791 mPa·s	–
x1 = 0.1227	3.836 mPa·s	3.224 mPa·s	2.741 mPa·s	2.354 mPa·s	–
x1 = 0.1461	4.568 mPa·s	3.799 mPa·s	3.201 mPa·s	2.728 mPa·s	–
x1 = 0.1745	5.342 mPa·s	4.401 mPa·s	3.676 mPa·s	3.114 mPa·s	–
x1 = 0.2062	5.943 mPa·s	4.87 mPa·s	4.051 mPa·s	3.414 mPa·s	–
x1 = 0.2453	6.471 mPa·s	5.287 mPa·s	4.386 mPa·s	3.685 mPa·s	–
x1 = 0.2961	6.828 mPa·s	5.569 mPa·s	4.616 mPa·s	3.878 mPa·s	–
x1 = 0.3486	6.796 mPa·s	5.568 mPa·s	4.626 mPa·s	3.9 mPa·s	–
x1 = 0.3968	6.483 mPa·s	5.332 mPa·s	4.45 mPa·s	3.744 mPa·s	–
x1 = 0.4616	6.161 mPa·s	5.13 mPa·s	4.326 mPa·s	3.692 mPa·s	–
x1 = 0.5081	5.768 mPa·s	4.838 mPa·s	4.11 mPa·s	3.531 mPa·s	–
x1 = 0.5809	5.129 mPa·s	4.357 mPa·s	3.75 mPa·s	3.257 mPa·s	–
x1 = 0.6498	4.532 mPa·s	3.892 mPa·s	3.37 mPa·s	2.946 mPa·s	–
x1 = 0.6917	4.245 mPa·s	3.672 mPa·s	3.202 mPa·s	2.817 mPa·s	–
x1 = 0.797	3.571 mPa·s	3.134 mPa·s	2.772 mPa·s	2.468 mPa·s	–
x1 = 0.8669	3.203 mPa·s	2.837 mPa·s	2.531 mPa·s	2.274 mPa·s	–
x1 = 0.9357	2.957 mPa·s	2.647 mPa·s	2.384 mPa·s	2.16 mPa·s	–
x1 = 0.9554	2.834 mPa·s	2.533 mPa·s	2.283 mPa·s	2.071 mPa·s	–
x2 = 0.0016	–	2.348 mPa·s and 2.365 mPa·s	2.126 mPa·s and 2.141 mPa·s	1.937 mPa·s and 1.95 mPa·s	1.777 mPa·s and 1.784 mPa·s
x2 = 0.0169	–	2.425 mPa·s	2.191 mPa·s	1.992 mPa·s	1.819 mPa·s

Source: the CheMixHub viscosity set
